One data set concerns HeLa cells. Kind of data set: MTT cell viability assay, HeLa. In kind it is cell-based, human. The settings on record: 48 hr. On the procedure: (§1) The cell lines were procured from ATCC (American Type Culture Collection) and cultured in DMEM (Dulbecco's Modified Eagle Medium) supplemented with 10% FBS (fetal bovine serum) without antibiotics. Cells were grown and maintained in a humidified incubator at 37° C. with 5% CO2. For the MTT assay, cells were trypsinized and harvested at ˜80-90% confluency and seeded in 96 well plates at a density of 1×10^4 cells per well. The seeded cells were incubated overnight and treated with 1 μM, 3 μM, 5 μM, 7 μM, 10 μM, 20 μM, 30 μM or 50 μM (final concentration) of DMSO-dissolved compound for 48 hr. To rule out vehicle induced toxicity, only 0.5% of final DMSO concentration was added to the cells. Post-incubation, the compound treatment was removed and replaced with 0.5 mg/ml (final concentration) of freshly prepared MTT solution. After incubating for 3.5 hr at 37° C., 5% CO2 humidified incubator, MTT was carefully removed without aspirating the formazan crystals and replaced with equivalent volume of DMSO to dissolve the formazan crystals. The plates were then read using a multi-plate reader at 570 nm. The absorbance was recorded and % viability was calculated according to the following equation:
(§2) [formula] • where, Abt is the absorbance of compound treated cells and Abc is the absorbance of control cells.
For orientation: Tetrazolium dyes change colour on reduction, which living cells bring about.

Data set [1] concerns the target T1, E234G HYPE AMPylation of T229A BiP (Homo sapiens, UniProt Q9BVA6, E234G).
T1 construct: Δ102 (aa 103-458) HYPE constructs (WT, E234G, and E234G/H363A); His6-SUMO (cleaved yes); made in house; host or cells: E. coli BL21-DE3-RILP
T1 sequence (Q9BVA6 103-458 E234G): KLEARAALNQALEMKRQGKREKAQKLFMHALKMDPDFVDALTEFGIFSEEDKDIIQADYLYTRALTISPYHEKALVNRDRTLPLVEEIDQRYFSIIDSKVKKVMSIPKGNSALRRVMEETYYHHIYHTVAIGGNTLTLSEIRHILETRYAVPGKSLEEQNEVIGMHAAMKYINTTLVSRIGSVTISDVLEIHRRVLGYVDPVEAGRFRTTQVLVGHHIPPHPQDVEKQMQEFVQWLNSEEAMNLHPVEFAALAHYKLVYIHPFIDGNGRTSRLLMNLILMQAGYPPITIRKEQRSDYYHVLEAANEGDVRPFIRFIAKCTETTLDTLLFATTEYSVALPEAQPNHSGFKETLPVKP
Put plainly: Radioactive in-gel T229A BiP AMPylation assay with E234G HYPE and α-32P-ATP. The settings on record: 10 μM compound. In kind it is biochemical. On the procedure: (§3) 1 μM of HYPE (final concentration) and (where specified) 5 μM of T229A BiP (final concentration) were preincubated with 10 μM DMSO-dissolved compound (final concentration) or equivalent volume of 100% DMSO at room temperature for 10 min in HTS Buffer. Reactions were run for 10 min at 30° C. and began with the addition of 0.01 μCi/μL α-32P-ATP (final concentration). All reactions were performed according to our previously described protocol for in vitro radioactive AMPylation assays19. Where specified, 5 μM of T229A BiP (final concentration) was added to reactions before the addition of compound.

For the next data set, the system named is HEK 293 cells. Put plainly: MTT cell viability assay, HEK 293. In kind it is cell-based, human. The following applies: HEK 293, 10 μM, 48 hr. On the procedure: as §1, §2
Data set [2] deals with T1, E234G HYPE AMPylation of T229A BiP. Kind of data set: Fluorescence in-gel T229A BiP AMPylation assay with E234G HYPE and Fl-ATP. It counts as biochemical. The settings on record: 10 μM compound. On the procedure:
1 μM of WT HYPE (final concentration) was preincubated with 10 μM DMSO-dissolved compound (final concentration) or equivalent volume of 100% DMSO at room temperature for 10 min. Reactions were run for 20 hr at 30° C. in the dark and began with the addition of 1 μM Fl-ATP (final concentration). Alternatively, E234G HYPE AMPylation reactions were run at 10 min due to its hyperactivity. All other parameters were held constant. All reactions were performed HTS Buffer (50 mM HEPES, 1 mM MgCl2, 0.1% Triton X-100, pH 7.50). All reactions were quenched with 4×SDS loading dye, boiled for 5 min at 95° C., and samples were run on 12% SDS-PAGE gels. Gels were imaged on a Typhoon 9500 FLA imager (General Electric) for fluorescence at 473 nm. Imaged gels were then stained with Coomassie Brilliant Blue, destained, and imaged for protein concentration. Where specified, 5 μM of T229A BiP (final concentration) was added to reactions before the addition of compound.

A further data set addresses T2, E234G HYPE (Homo sapiens, UniProt Q9BVA6, E234G).
T2 construct: Δ102 (aa 103-458) HYPE constructs (WT, E234G, and E234G/H363A); His6-SUMO (cleaved yes); made in house; host or cells: E. coli BL21-DE3-RILP
T2 sequence (Q9BVA6 103-458 E234G): T1 sequence (Q9BVA6 103-458 E234G)
Kind of data set: Radioactive in-gel autoAMPylation assay with E234G HYPE and α-32P-ATP. In kind it is biochemical. The following applies: 10 μM compound. On the procedure:
as §3

For orientation: cell viability means a read-out of living cells in per cent, often relative to untreated cells. A higher cell viability goes with less harm to the cells. `c1cn(-c2ccc(-c3nnc(-c4ccoc4)o3)cn2)cn1` [Compound I2.10]: the cell viability in the data set with HeLa cells (HeLa (so in the source), 50 μM) is given as ~60%; in the data set with HeLa cells (HeLa, up to 50 μM) it was 100%; in the data set on HEK 293 cells, ~80%. The results for the “inhibition of T229A BiP AMPylation in gel” value in data set [1] and in data set [2] were “inhibitory efficacy against BiP AMPylation was reproducible” and “confirm the inhibitory properties”, respectively. Further, on E234G HYPE, the “inhibition of E234G HYPE autoAMPylation in gel” value was “bioactivity of I2.10 is mirrored”.

Source of the values: patent publication US20240382498A1, “NOVEL INHIBITOR OF HYPE-MEDIATED AMPYLATION” (Purdue Research Foundation, priority 2023, published 2024).
